Experimental data from patent publication EP0652220A1, “CEPHALOSPORIN DERIVATIVE” (TAISHO PHARMACEUTICAL CO. LTD, priority 1992, dated 1994).

What was measured:
[1] = system: Staphylococcus epidermidis sp-al-1; experiment: antibacterial test, agar plate dilution method; format: cell-based; conditions: inoculum size 10⁶ cells/ml
Experimental: (§1) The antibacterial test against various bacteria was carried out by the agar plate dilution method (inoculum size : 10⁶ cells/ml), and the results are shown in the following Table 1.

[2] = system: Enterococcus faecalis CSJ 1212; experiment: antibacterial test, agar plate dilution method; format: cell-based; conditions: inoculum size 10⁶ cells/ml
Experimental: as §1

[3] = system: Klebsiella pneumoniae IFO 3317; experiment: antibacterial test, agar plate dilution method; format: cell-based; conditions: inoculum size 10⁶ cells/ml
Experimental: as §1

[4] = system: Morganella morganii IID 602; experiment: antibacterial test, agar plate dilution method; format: cell-based; conditions: inoculum size 10⁶ cells/ml
Experimental: as §1

[5] = system: Eschelichia coli NIHJ JC-2; experiment: antibacterial test, agar plate dilution method; format: cell-based; conditions: inoculum size 10⁶ cells/ml
Experimental: as §1

[6] = system: Proteus mirabilis IFO 3849; experiment: antibacterial test, agar plate dilution method; format: cell-based; conditions: inoculum size 10⁶ cells/ml
Experimental: as §1

[7] = system: Serratia marcescens IID 618; experiment: antibacterial test, agar plate dilution method; format: cell-based; conditions: inoculum size 10⁶ cells/ml
Experimental: as §1

[8] = system: Staphylococcus aureus 209P-JP; experiment: antibacterial test, agar plate dilution method; format: cell-based; conditions: inoculum size 10⁶ cells/ml
Experimental: as §1

[9] = system: Haemophilus influenzae ATCC 19418; experiment: antibacterial test, agar plate dilution method; format: cell-based; conditions: inoculum size 10⁶ cells/ml
Experimental: as §1

[10] = mortality after a single intraperitoneal dose in mice; format: in vivo, male ICR strain mice; conditions: single dose 4,000 mg/kg intraperitoneal, 50 ml/kg (saline), 3 mice per group, observation for 14 days
Experimental: The mortality after a single dose of the test drug was measured using 3 male ICR strain mice (4 weeks old) for each group. Administration route : intraperitoneal Administration volume : 50 ml/kg (saline) Dose : 4,000 mg/kg Observation period : for 14 days after the administration The results are shown in Table 3.

[11] = concentration of the drug in blood after oral administration to mice; format: in vivo, male ICR strain mice; set-up: unit not given here; conditions: 20 mg/kg suspended in 5% gum arabic, bioassay (Bacillus cereus S1101)
Experimental: Three male ICR strain mice (4 weeks old) for each group were administered orally with the test drug, and the change of the concentration of the drug in blood was measured with the lapse of time. Dose of drug: 20 mg/kg (suspended in 5% gum arabic) Quantitative method: Bioassay method (test bacteria: Bacillus cereus S1101)

| SMILES | antibacterial activity [1] | antibacterial activity [2] | antibacterial activity [3] | antibacterial activity [4] | antibacterial activity [5] | antibacterial activity [6] | antibacterial activity [7] | antibacterial activity [8] | antibacterial activity [9] | Mortality [10] | concentration of the drug in blood ([11]; 0.25 hour after administration) | concentration of the drug in blood ([11]; 0.5 hour after administration) | concentration of the drug in blood ([11]; 1.0 hour after administration) | concentration of the drug in blood ([11]; 2.0 hour after administration) | concentration of the drug in blood ([11]; 4.0 hour after administration) |
| --- | --- | --- | --- | --- | --- | --- | --- | --- | --- | --- | --- | --- | --- | --- | --- |
| C#CCSC1=C(C(=O)[O-])N2C(=O)[C@@H](NC(=O)/C(=N\O)c3csc(N)n3)[C@H]2SC1.[Na+] [A, 7β-{2-(2-aminothiazol-4-yl)-2-[(Z)-hydroxyimino]-acetamido}-3-(2-propynyl)thio-3-cephem-4-carboxylic acid sodium salt] | 0.20 | 1.56 | 0.05 | 0.10 | 0.20 | 0.10 | 0.78 | 0.20 | 0.20 | 0/3 |  |  |  |  |  |
| C=CCSC1=C(C(=O)[O-])N2C(=O)[C@@H](NC(=O)/C(=N\O)c3csc(N)n3)[C@H]2SC1.[Na+] [D, 7β-{2-(2-aminothiazol-4-yl)-2-[(Z)-hydroxyimino]acetamido}-3-allylthio-3-cephem-4-carboxylic acid sodium salt] | 0.20 | 3.13 | 0.20 | 0.20 | 0.39 | 0.20 | 1.56 | 0.20 | 0.39 | 2/3 |  |  |  |  |  |
| C#CCSC1=C(C(=O)OCOC(=O)C(C)(C)C)N2C(=O)[C@@H](NC(=O)/C(=N\O)c3csc(N)n3)[C@H]2SC1 [E, pivaloyloxymethyl 7β-{2-(2-aminothiazol-4-yl)-2-[(Z)-hydroxyimino]acetamido}-3-(2-propynyl)thio-3-cephem-4-carboxylate] |  |  |  |  |  |  |  |  |  |  | 14.0 | 18.4 | 15.4 | 8.4 | 4.0 |
| C=CC1=C(C(=O)O)N2C(=O)[C@@H](NC(=O)/C(=N\O)c3csc(N)n3)[C@H]2SC1 [C, Cefnidir] | 0.39 | 1.56 | 0.10 | 0.78 | 0.39 | 0.20 | 0.78 | 0.39 | 0.39 |  | 1.8 | 2.0 | 2.5 | 1.2 | 0.1 |
| C=CC1=C(C(=O)O)N2C(=O)[C@@H](NC(=O)/C(=N\OCC(=O)O)c3csc(N)n3)[C@H]2SC1 [B, Cefixime] | 25 | >100 | 0.025 | 0.20 | 0.39 | 0.025 | 0.20 | 25 | 0.05 |  |  |  |  |  |  |
